One series relates to HaCaT keratinocytes. Nature of the series: Chemotaxis assay, ThinCert inserts. Format: cell-based, human. Particulars: 0.1 and 1 µg/mL, 24 h, serum-free; n=12 (Figure S7B). As for the experimental part:
The effect of IM on cell chemotaxis was assessed with ThinCert cell culture inserts (8 μm, Greiner Bio-One, Kremsmünster, Austria). Cells were starved overnight in serum-free high-glucose DMEM and then seeded on inserts placed in a 24-well plate, at a density of 100,000 cells, in serum-free medium. Culture medium with appropriate concentrations of IM was then added to the wells of the plate and incubated for 24 h. The cells were stained with 8 μM Calcein-AM (BD Pharmingen), then migratory cells were detached with typsin-EDTA (Sigma-Aldrich, St. Louis, MO, USA). Detached cells were transferred to another plate and read with a fluorescence plate reader at an excitation wavelength of 485 nm and an emission wavelength of 520 nm.

In the next series the target is bovine albumin (Bos taurus, UniProt P02769). Nature of the series: Affinity test on albumin-Sepharose column. It counts as binding. The note with it: ammonium hydrogen carbonate pH 7.4, 2 h, 25 °C, elution 0.1% TFA, ESI-IT-TOF MS of fractions. As for the experimental part:
Immobilization of protein in a microcolumn, and affinity tests, were performed as described previously by Spodzieja et al.. The IM peptide was added onto an albumin-Sepharose column equilibrated in ammonium hydrogen carbonate, pH 7.4, and incubated for 2 h at 25 °C with gentle shaking. After 2 h, the column was washed with 100 mL of ammonium hydrogen carbonate, collecting the first and last milliliter of the solution (supernatant and last wash fraction). The albumin-peptide complex was dissociated by incubation for 15 min in 0.1% TFA, with gentle shaking. The procedure was repeated twice, and the elution fraction was collected each time. All fractions were lyophilized and analyzed by mass spectrometry (ESI-IT-TOF, Kyoto, Shimadzu Japan).

A further series deals with CTL, Th and NK cells. Nature of the series: Immune cell activation in PBMCs, flow cytometry. Format: cell-based, human. Particulars: 0.1 and 1.0 µg/mL, 48 h, 5 independent experiments. As for the experimental part:
Immunological tests were conducted on human peripheral blood mononuclear cells, isolated from “buffy coats” using a ficoll density gradient (Histopaque, Sigma-Aldrich, St. Louis, MO, USA). Buffy coats for were obtained from blood of healthy anonymous donors of the Regional Center of Blood Donation and Blood Therapy in Gdansk, Poland. After washing in PBS, erythrocyte lysis, and cell counting (cell counter, Bio-Rad), the PBMCs were seeded onto a 24-well culture plate at a density of 10^6 cells/1 mL of RPMI 1640 (Penicillin/Streptomycin, 10% FBS) per well. After cell resting for 24 h, cells were stimulated with IM peptide (0.1 µg/mL and 1.0 µg/mL) for the next 48 h under appropriate conditions (37 °C, 5% CO2). The untreated cells were used as a negative control, whereas cells stimulated with LPS (1 µg/mL) and PHA (2.5 µg/mL) were a positive control. After incubation, the PBMCs were collected, washed with PBS, counted and prepared for flow cytometry analysis. 10^4 cells/100 µl were stained with monoclonal, fluorochrome-conjugated antibodies (anti-CD3, -CD4, -CD8, -CD16, -CD56, -CD25, -CD69, -CD71, -HLA-DR, -CD11c, -CD80, and -CD83) and incubated for 30 min in RT in the dark. Stained cells were analyzed using a flow cytometer (LSRFortessa, BD, USA). All data are presented as percentages due to the application of hospital diagnostic laboratory standards for immune cells analyses.

The test system of another series is T47D breast cancer cells. The experiment in a line: MTT proliferation test. It counts as cell-based. Particulars: 48 or 72 h, RPMI-1640 with 10 % FBS; Mann Whitney U-test (Figure S11). Here is the method:
(§1) Cancer cell prolifertion assay. Cell proliferation was determined by the MTT method. MTT test measures enzymatic activity, which is a marker of viable cells. Drop in amount of formazan informs that there is less metabolically active cells as compared with control (taken as 100%); however, it might be caused by cell cycle arrest (stopped or slowed proliferation) and/or cell death (which also may happen after prolonged incubation with tested compounds). T47D or MCF-7 breast cancer cells were cultured in RPMI-1640 supplemented with 10 % fetal bovine serum and 1 % penicillin/streptomycin solution. Cells were seeded, at a density of 2 x 10^3 per well, in a 96-well plate and allowed to attach overnight. The medium was replaced with fresh medium supplemented with desired concentrations of each investigated compound for 24, 48 or 72 h. Before the end of treatment, 25 µL of MTT solution (4 mg per ml-^1) were added to each well. After 3 h of incubation, medium was removed, and formazan crystals were dissolved in 100 µL of DMSO. Absorbance was measured at 570 nm (with reference wavelength 660 nm) in a Victor microplate reader. Data were obtained from at least three independent experiments performed in triplicate.
A general note: Tetrazolium dyes change colour on reduction, which living cells bring about.

The test system of series [1] is MCF-7 breast cancer cells. Nature of the series: MTT proliferation test. Format: cell-based. The note with it: 24, 48 or 72 h, RPMI-1640 with 10 % FBS; Mann Whitney U-test (Figure S12). As for the experimental part: as §1

One compound from paper PMC7355430, “Imunofan—RDKVYR Peptide—Stimulates Skin Cell Proliferation and Promotes Tissue Repair” (Molecules, 2020) can be followed below.

Peptide text beside a SMILES is read from it.

Sequence of bovine albumin (P02769 25-607): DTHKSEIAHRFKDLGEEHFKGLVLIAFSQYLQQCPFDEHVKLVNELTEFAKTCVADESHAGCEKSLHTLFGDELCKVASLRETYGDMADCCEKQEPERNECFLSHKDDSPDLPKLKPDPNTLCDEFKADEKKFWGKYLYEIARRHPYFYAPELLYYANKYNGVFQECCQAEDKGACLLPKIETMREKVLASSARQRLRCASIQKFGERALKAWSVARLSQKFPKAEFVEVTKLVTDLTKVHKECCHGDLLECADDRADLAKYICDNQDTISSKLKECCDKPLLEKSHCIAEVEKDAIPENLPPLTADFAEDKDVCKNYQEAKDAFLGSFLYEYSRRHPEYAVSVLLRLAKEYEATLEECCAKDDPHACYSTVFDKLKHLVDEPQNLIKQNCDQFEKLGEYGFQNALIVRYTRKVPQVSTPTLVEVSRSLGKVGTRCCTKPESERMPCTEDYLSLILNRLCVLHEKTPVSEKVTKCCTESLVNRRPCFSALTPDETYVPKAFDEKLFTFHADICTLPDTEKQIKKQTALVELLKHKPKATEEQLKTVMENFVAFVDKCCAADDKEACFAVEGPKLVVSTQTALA

Consider `CC(C)[C@H](NC(=O)[C@H](CCCCN)NC(=O)[C@H](CC(=O)O)NC(=O)[C@@H](N)CCCNC(=N)N)C(=O)N[C@@H](Cc1ccc(O)cc1)C(=O)N[C@@H](CCCNC(=N)N)C(=O)O` [IM, H-Arg-Asp-Lys-Val-Tyr-Arg-OH] (H-RDKVYR-OH), for which, in the series with HaCaT keratinocytes, the “inhibition of chemotaxis with respect to the control” value is listed as 10–20%. In addition, the interaction with albumin result on bovine albumin is given as “interacted with bovine albumin”. In addition, in the series with CTL, Th and NK cells, the “immunogenic properties (activation of CTL, Th, NK)” value was “no immunogenic properties”. For the same compound, the “difference in proliferation from control (MTT)” value (in the series with T47D breast cancer cells; in series [1]) was “not statistically significant” each time.
